Experimental data: patent US4470980A, “Method of increasing oral absorption of β-lactam antibiotics” (priority 1981, dated 1984)

Assay: Blood level AUC after oral capsule of β-lactam antibiotic with adjuvant in dogs
Format: in vivo, dog (Beagles)
Details: 300 mg/kg, dog, per os capsule, control, no absorption promotor, carbenicillin by bioassay, read-out: (AUC)° area below the blood level curve
Method: Animal: Beagles (body weight 9.9-12.0 kg), 2 animals per test
Drug: β-Lactam antibiotics
Adjuvant: Hydroxylated aromatic carboxylic acids
Dose: β-Lactam antibiotic/adjuvant=300 mg/300 mg/kg
Form of inoculum: Capsule
Route of administration: Per os
Blood sampling: Vein (upper arm)
Object of assay: Blood level
Quantitation: Carbenicillin was determined by bioassay.

AUC	Compound
5200 ng·h/mL	CC1(C)S[C@@H]2[C@H](NC(=O)C(C(=O)O)c3ccccc3)C(=O)N2[C@H]1C(=O)O (stereo partly drawn) [Carbenicillin]

Assay: in vivo
Details: mouse, urine, po, control without sodium salicylate, cefmetazole 50 mg/kg, gavage, mice, ± standard deviation, 8 mice, read-out: Percent of Dose In Urine
Method: The sodium salt of cefmetazole (50 mg/kg) and sodium salicylate (200 mg/kg) dissolved in water were given to mice by gavage. As a control, mice were given an equal dose of the sodium salt of cefmetazole in water without the added sodium salicylate. The mice were place in individual metabolism cages and their urines collected after 24 hours.
The urine samples were acidified to pH 2.0 with 1N phosphoric acid. Acidified samples were applied to 100-200 mesh XAD.2 columns (1.5 ml), and the column washed with H2 O. Cefmetazole was eluted with 2 ml methanol and measured by high pressure liquid chromatography which was carried out using an Altex liquid chromatograph equipped with a dual wavelength recorder (254 nm and 280 nm). The column was a LiChrosorb 10 RP-18 (length=25 cm., internal diameter--4.6 mm) obtained from Chrompack, Whittier, CA. All assays were done at ambient temperatures. A 3 cm guard column of RP-18 column material (Rheodyne, Inc., Berkeley, CA) was also used. […] Concentrations of cefmetazole were determined by measuring peak height at 254 nm and evaluating on the basis of standard curves run under identical conditions.

dose excreted at 24 h	Compound
9.1 ± 7.5%	CO[C@@]1(NC(=O)CSCC#N)C(=O)N2C(C(=O)O)=C(CSc3nnnn3C)CS[C@@H]21 [Cefmetazole]

Assay: not given
Details: in vivo, po; cited from earlier work

Compound	oral activity	absorbed	blood levels
CO[C@@]1(NC(=O)C(C(=O)O)c2ccc(O)cc2)C(=O)N2C(C(=O)O)=C(CSc3nnnn3C)CO[C@@H]21 (stereo partly drawn) [Example S-6059]	poor oral activity		
CC1(C)S[C@@H]2[C@H](NC(=O)C(C(=O)Oc3ccccc3)c3ccccc3)C(=O)N2[C@H]1C(=O)O (stereo partly drawn) [carfecillin]		40%	low blood levels of carbenicillin
CC1(C)S[C@@H]2[C@H](NC(=O)C(C(=O)Oc3ccc4c(c3)CCC4)c3ccccc3)C(=O)N2[C@H]1C(=O)O (stereo partly drawn) [carindacillin]		40%	low blood levels of carbenicillin
CC1=C(C(=O)O)N2C(=O)[C@@H](NC(=O)[C@H](N)c3ccc(O)cc3)[C@H]2SC1 [cefdioxil]		greater than 80%	
CO[C@@]1(NC(=O)Cc2cccs2)C(=O)N2C(C(=O)O)=C(COC(N)=O)CS[C@@H]21 [cefoxitin, (6R-cis)-3-[[(amino-carbonyl)oxy]methyl]-7-methoxy-8-oxo7[(2-thienylacetyl)-amino]-5-thia-1-azabicyclo [4.2.0]oct-2-ene-2-carboxylic acid]	poor oral activity		
CO/N=C(\C(=O)N[C@@H]1C(=O)N2C(C(=O)O)=C(COC(N)=O)CS[C@H]12)c1ccco1 [cefuroxime]	poor oral activity		
CC(=O)OCC1=C(C(=O)O)N2C(=O)[C@@H](NC(=O)Cc3cccs3)[C@H]2SC1 [cephalothin]	poor oral activity		
CC1=C(C(=O)O)N2C(=O)[C@@H](NC(=O)[C@H](N)C3=CCC=CC3)[C@H]2SC1 [cephradine]		greater than 80%	

Same assay, conditions: oral; prior art; cited from earlier work

Compound	oral activity	absorbed	blood levels
CO[C@@]1(NC(=O)CSCC#N)C(=O)N2C(C(=O)O)=C(CSc3nnnn3C)CS[C@@H]21 [Cefmetazole]	poor oral activity		
CCN1CCN(C(=O)N[C@@H](C(=O)N[C@@H]2C(=O)N3C(C(=O)O)=C(CSc4nnnn4C)CS[C@H]23)c2ccc(O)cc2)C(=O)C1=O [Example T-1551]	poor oral activity		
CC1(C)S[C@@H]2[C@H](NC(=O)[C@H](N)c3ccc(O)cc3)C(=O)N2[C@H]1C(=O)O [amoxicillin, 6-[[amino(4-hydroxyphenyl)-acetyl]amino]-3,3-dimethyl-7-oxo-4-thia-1-azabicyclo-[3.2.0]heptane-2-carboxylic acid]	poor oral activity		
CC1(C)S[C@@H]2[C@H](NC(=O)[C@H](N)c3ccccc3)C(=O)N2[C@H]1C(=O)O [ampicillin]	poor oral activity		
N[C@@H](C(=O)N[C@@H]1C(=O)N2C(C(=O)O)=C(Cl)CS[C@H]12)c1ccccc1 [cefaclor]		greater than 80%	
Cc1nnc(SCC2=C(C(=O)O)N3C(=O)[C@@H](NC(=O)[C@H](N)c4ccc(O)cc4)[C@H]3SC2)s1 [cefaporole]	poor oral activity		
Cc1nnc(SCC2=C(C(=O)O)N3C(=O)[C@@H](NC(=O)Cn4cnnn4)[C@H]3SC2)s1 [cefaxolin]	poor oral activity		
CC(=O)OCC1=C(C(=O)O)N2C(=O)[C@@H](NC(=O)CC#N)[C@H]2SC1 [cephacetrile]	poor oral activity		
CC(=O)OCC1=C(C(=O)O)N2C(=O)[C@@H](NC(=O)[C@H](N)c3ccccc3)[C@H]2SC1 [cephaloglycin]		greater than 80%	
O=C(Cc1cccs1)N[C@@H]1C(=O)N2C(C(=O)[O-])=C(C[n+]3ccccc3)CS[C@H]12 [cephaloridine]	poor oral activity		
CC(=O)OCC1=C(C(=O)O)N2C(=O)[C@@H](NC(=O)CCC[C@@H](N)C(=O)O)[C@H]2SC1 [cephalosporin C]	lack of oral activity		
CC(=O)OCC1=C(C(=O)O)N2C(=O)[C@@H](NC(=O)CSc3ccncc3)[C@H]2SC1 [cephapirin]	poor oral activity		
CC1(C)S[C@@H]2[C@H](NC(=O)COc3ccccc3)C(=O)N2[C@H]1C(=O)O [penicillin V]			higher blood levels of the active therapeutic agent
CC1(C)S[C@@H]2[C@H](NC(=O)[C@H](C(=O)O)c3ccsc3)C(=O)N2[C@H]1C(=O)O [ticarcillin]	cannot be administered by the oral route		

Assay: not given
Details: gastric acid; prior art; cited from earlier work

Compound	acid stability
CC1(C)S[C@@H]2[C@H](NC(=O)COc3ccccc3)C(=O)N2[C@H]1C(=O)O [penicillin V]	more acid stable
